For seven molecules, Ki and inhibition results are on record in ChEMBL document CHEMBL1152960 (Bioorg Med Chem, 2009).

For experiment [1], the target named is T1, Adenosine receptor A1 (Homo sapiens, UniProt P30542).
T1 sequence (P30542 whole entry): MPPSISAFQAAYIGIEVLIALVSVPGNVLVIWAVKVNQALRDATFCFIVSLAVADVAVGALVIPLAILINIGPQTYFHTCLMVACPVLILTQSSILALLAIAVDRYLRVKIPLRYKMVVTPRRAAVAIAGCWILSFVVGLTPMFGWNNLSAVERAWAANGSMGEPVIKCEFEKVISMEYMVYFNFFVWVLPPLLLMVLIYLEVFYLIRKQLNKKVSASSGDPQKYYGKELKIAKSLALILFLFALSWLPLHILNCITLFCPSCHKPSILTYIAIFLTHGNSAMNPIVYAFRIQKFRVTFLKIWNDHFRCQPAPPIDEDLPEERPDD
The experiment can be described thus: Displacement of [3H]DPCPX from human recombinant adenosine A1 receptor expressed in HEK293T cells by scintillation counting. It counts as cell-based, HEK-293T. (In general: In a radioligand displacement assay an active substance lowers the binding of a labelled ligand.)

The target of experiment [2] is Adenosine receptor A2a (Homo sapiens, UniProt P29274). Kind of experiment: biochemical.
Description: Displacement of [3H]CGS21680 from human recombinant adenosine A2A receptor expressed in HEK293T cells by scintillation counting
Experiment [3] has as its target T2, Adenosine receptor A3 (Homo sapiens, UniProt P0DMS8).
T2 sequence (P0DMS8 whole entry): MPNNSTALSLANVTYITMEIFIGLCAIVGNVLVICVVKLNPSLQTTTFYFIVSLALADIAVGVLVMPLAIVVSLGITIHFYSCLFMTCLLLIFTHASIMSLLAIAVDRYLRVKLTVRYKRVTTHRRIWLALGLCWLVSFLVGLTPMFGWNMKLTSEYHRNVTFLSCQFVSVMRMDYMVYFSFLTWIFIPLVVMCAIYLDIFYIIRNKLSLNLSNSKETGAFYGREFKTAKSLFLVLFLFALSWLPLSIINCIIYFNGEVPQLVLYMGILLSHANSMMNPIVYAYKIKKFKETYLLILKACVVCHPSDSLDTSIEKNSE
The experiment can be described thus: Displacement of [3H]NECA from human recombinant adenosine A3 receptor expressed in HEK293T cells by scintillation counting. It counts as cell-based, HEK-293T.

For experiment [4], the target named is T3, Adenosine receptor A3 (Homo sapiens) (UniProt P0DMS8).
T3 sequence (whole entry): T2 sequence (P0DMS8 whole entry)
Kind of experiment: Inhibition of [3H]NECA binding to human recombinant adenosine A3 receptor expressed in HEK293T cells at 100 uM by scintillation counting. The settings on record: HEK-293T. It counts as cell-based.

A word on the Ki: it is a dissociation constant, usually derived from enzyme kinetics or from competition with a known ligand. In general, inhibition refers to the relative decrease from the control value, in per cent.

Sequence of Adenosine receptor A2a (P29274 whole entry): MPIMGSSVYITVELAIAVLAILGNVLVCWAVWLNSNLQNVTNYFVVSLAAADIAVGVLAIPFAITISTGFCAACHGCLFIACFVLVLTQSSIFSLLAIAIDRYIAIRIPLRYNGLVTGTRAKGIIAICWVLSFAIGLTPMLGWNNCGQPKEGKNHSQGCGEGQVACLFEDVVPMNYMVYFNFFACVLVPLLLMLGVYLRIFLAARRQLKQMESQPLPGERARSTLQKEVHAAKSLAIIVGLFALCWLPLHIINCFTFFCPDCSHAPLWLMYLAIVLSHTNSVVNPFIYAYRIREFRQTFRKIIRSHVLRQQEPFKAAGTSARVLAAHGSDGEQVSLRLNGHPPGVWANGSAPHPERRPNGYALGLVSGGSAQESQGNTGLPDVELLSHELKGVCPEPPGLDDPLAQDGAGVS

With `CCCOc1cncc2[nH]c3c(=O)n(CCC)c(=O)n(CCC)c3c12`, the figures for the Ki in experiment [1], in experiment [2] and in experiment [3] were 346 nM, 164 nM and 3.82 nM, respectively.
Taken in the same sequence, the figures for `CCCn1c(=O)c2[nH]c3cccnc3c2n(CCC)c1=O` were 132 nM, 570 nM and 16.8 nM.
Taken in the same sequence, the figures for `CCCn1c(=O)c2[nH]c3cnccc3c2n(CCC)c1=O` were 1410 nM, 3630 nM and 290 nM.
Taken in the same sequence, the figures for `CCCOc1cnc2c(c1)[nH]c1c(=O)n(CCC)c(=O)n(CCC)c12` were 921 nM, 1470 nM and 209 nM.
For the molecule `Cn1c(=O)c2c(ncn2C)n(C)c1=O`, in experiment [4], the inhibition is 9%.
As for `Cn1c(=O)c2[nH]c3cnccc3c2n(C)c1=O`, the Ki was 11700 nM in experiment [1], 10100 nM in experiment [2] and 526 nM in experiment [3].
In the same order, the values of `Cn1c(=O)c2[nH]c3cccnc3c2n(C)c1=O` are 379 nM, 893 nM and 13.9 nM.
